# According to patent publication US10752617B2 (GALDERMA RESEARCH & DEVELOPMENT, priority 2014, dated 2020):
# Target: T1, GAL4-RORγ (GAL4 DBD fused to the ROR gamma ligand-binding domain) (Homo sapiens, UniProt P51449)
# T1 construct: expressed in transfected cells; host or cells: HG5LN (HeLa line with GAL4-responsive luciferase reporter)
# T1 sequence (P51449 269-508 limits assumed): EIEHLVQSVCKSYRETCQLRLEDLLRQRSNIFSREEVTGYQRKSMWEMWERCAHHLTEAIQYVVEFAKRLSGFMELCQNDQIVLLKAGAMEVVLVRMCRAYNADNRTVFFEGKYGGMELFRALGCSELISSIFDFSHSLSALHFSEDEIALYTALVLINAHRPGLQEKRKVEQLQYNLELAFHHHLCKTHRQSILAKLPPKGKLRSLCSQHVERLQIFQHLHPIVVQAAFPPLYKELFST
# Assay: GAL4-RORγ transactivation (luciferase reporter, HG5LN HeLa line)
# Assay type: cell-based
# Conditions: HG5LN HeLa cells, 18 hours incubation, luciferase luminescence, read-out: IC50 hRORg
# Excerpt: In the tables described above, the median inhibitory concentrations IC50 for the compounds belonging to formula (I) according to the invention have been given according to the following models:
# GAL4-RORγ Transactivation
# The RORγ transactivation model was developed from the line HG5LN, which is a HeLa line that stably expresses a luciferase reporter gene controlled by a pentamer of the GAL4 recognition domain of yeast and of a β-globin promoter. The HG5LN line was stably transfected by the DNA-binding domain (DBD) of GAL4 fused to the ROR gamma ligand-binding domain (LBD). Molecules that inhibit the ROR gamma constitutive activity reduce the luciferase expression, thus leading to a reduction in the emitted luminescence.
# The cells are seeded in 384-well plates (5000 cells in 45 μL/well of culture medium containing 10% fetal calf serum) and incubated for 4 hours at 37° C., 5% CO2. 5 μL of the test molecules (compounds described in the tables described above) are then added to each well and the plates are incubated for 18 hours at a temperature of 37° C. under 5% of CO2. 20 μL of luciferase substrate (Promega) are added to each well and the luminescence emitted is read by a microplate reader.
# The luminescence units (“RLU”) are normalized by positive controls (“POS” containing a saturated concentration of N-(2,2,2-trifluoroethyl)-N-[4-[2,2,2-trifluoro-1-hydroxy-1-(trifluoromethyl)ethyl]phenyl])benzenesulfonamide and negative controls (“NEG” containing DMSO): % inhibition=((RLU−NEG)*100)/(POS−NEG). The IC50 values are calculated from a 4-parameter logistic model using the XLFit software (IDBS).
row,Compound,IC50
1,"CCc1ccc(N([C@H](C)CC)S(=O)(=O)c2ccc3c(cnn3CC3CCOCC3)c2)cc1 [Compound 2, 1-(tetrahydropyran-4-ylmethyl)-1H-indazole-5-sulfonic acid ((R)-sec-butyl)(4-ethylphenyl)amide]",100 to 1000 nM
2,"CCc1ccc(N(C2CC2)S(=O)(=O)c2ccc3c(cnn3CC3CCOCC3)c2)cc1 [Compound 3, 1-(tetrahydropyran-4-ylmethyl)-1H-indazole-5-sulfonic acid cyclopropyl(4-ethylphenyl)amide]",> 1000 nM
3,"CCc1ccc(N(CC(C)C)S(=O)(=O)c2ccc3c(Br)nn(C4CCCCO4)c3c2)cc1 (stereo not drawn) [Compound 4, 3-bromo-1-(tetrahydropyran-2-yl)-1H-indazole-6-sulfonic acid (4-ethylphenyl)isobutylamide]",> 1000 nM
4,"CCc1ccc(N(CC2CCOCC2)S(=O)(=O)c2ccc3c(cnn3CC3CCOCC3)c2)cc1 [Compound 5, 1-(tetrahydropyran-4-ylmethyl)-1H-indazole-5-sulfonic acid (4-ethylphenyl)(tetrahydropyran-4-ylmethyl)amide]",> 1000 nM
5,"CCc1ccc(N(CC(C)C)S(=O)(=O)c2ccc3c(cnn3Cc3c(C)noc3C)c2)cc1 [Compound 6, 1-((3,5-dimethylisoxazol-4-yl)methyl)-N-(4-ethylphenyl)-N-isobutyl-1H-indazole-5-sulfonamide]",100 to 1000 nM
6,"CCCN(c1ccc(CC)cc1)S(=O)(=O)c1ccc2c(cnn2CC2CCOCC2)c1 [Compound 8, 1-(tetrahydropyran-4-ylmethyl)-1H-indazole-5-sulfonic acid (4-ethylphenyl)propyl]",> 1000 nM
7,"CCCCN(c1ccc(CC)cc1)S(=O)(=O)c1ccc2c(cnn2CC2CCOCC2)c1 [Compound 9, 1-(tetrahydropyran-4-ylmethyl)-1H-indazole-5-sulfonic acid butyl(4-ethylphenyl)amide]",> 1000 nM
8,"CC(C)CN(c1cc(Cl)ccc1F)S(=O)(=O)c1ccc2c(cnn2CC2CCOCC2)c1 [Compound 10, 1-(tetrahydropyran-4-ylmethyl)-1H-indazole-5-sulfonic acid (5-chloro-2-fluorophenyl)isobutylamide]",> 1000 nM
9,"Cc1ccc(C)c(N(CC(C)C)S(=O)(=O)c2ccc3c(cnn3CC3CCOCC3)c2)c1 [Compound 11, 1-(tetrahydropyran-4-ylmethyl)-1H-indazole-5-sulfonic acid (2,5-dimethylphenyl)isobutylamide]",100 to 1000 nM
10,"CCCCc1ccc(N(CC(C)C)S(=O)(=O)c2ccc3c(cnn3CC3CCOCC3)c2)c(C)c1 [Compound 13, 1-(tetrahydropyran-4-ylmethyl)-1H-indazole-5-sulfonic acid (4-butyl-2-methylphenyl)isobutylamide]",100 to 1000 nM
11,"CCc1ccc(N(CC(C)C)S(=O)(=O)c2ccc3c(c2)c(CO)nn3CC2CCOCC2)cc1 [Compound 14, 3-hydroxymethyl-1-(tetrahydropyran-4-ylmethyl)-1H-indazole-5-sulfonic acid (4-ethylphenyl)isobutylamide]",> 1000 nM
12,"CCc1ccc(N(CC2COC2)S(=O)(=O)c2ccc3c(cnn3CC3CCOCC3)c2)cc1 [Compound 16, 1-(tetrahydropyran-4-ylmethyl)-1H-indazole-5-sulfonic acid (4-ethylphenyl)oxetan-3-ylmethylamide]",> 1000 nM
13,"CCc1ccc(N(CC(C)C)S(=O)(=O)c2ccc3c(cnn3C3CCN(C(C)=O)C3)c2)cc1 (stereo not drawn) [Compound 17, 1-(1-acetylpyrrolidin-3-yl)-1H-indazole-5-sulfonic acid (4-ethylphenyl)isobutylamide]",100 to 1000 nM
14,"CCc1ccc(N(CC(C)C)S(=O)(=O)c2ccc3c(c2)c(OCC2CCOCC2)nn3CC2CCOCC2)cc1 [Compound 18, 3-(tetrahydropyran-4-ylmethoxy)-1-(tetrahydropyran-4-ylmethyl)-1H-indazole-5-sulfonic acid (4-ethylphenyl)isobutylamide]",> 1000 nM
15,CCc1ccc(N(CC(C)C)S(=O)(=O)c2ccc3c(cnn3CC3CN(C(C)=O)C3)c2)cc1 [Compound 19],> 1000 nM
16,"CCc1ccc(N(CC(C)C)S(=O)(=O)c2ccc3c(cnn3CC3CCN(C(C)=O)C3)c2)cc1 (stereo not drawn) [Compound 20, 1-((1-acetylpyrrolidin-3-yl)methyl)-N-(4-ethylphenyl)-N-isobutyl-1H-indazole-5-sulfonamide]",> 1000 nM
17,"CCc1ccc(N(CC(C)C)S(=O)(=O)c2ccc3c(cnn3CC3CCOC3)c2)cc1 (stereo not drawn) [Compound 21, N-(4-ethylphenyl)-N-isobutyl-1-((tetrahydrofuran-3-yl)methyl)-1H-indazole-5-sulfonamide]",> 1000 nM
18,"CCc1ccc(N(CC(C)C)S(=O)(=O)c2ccc3c(cnn3CC3CCCOC3)c2)cc1 (stereo not drawn) [Compound 22, N-(4-ethylphenyl)-N-isobutyl-1-((tetrahydro-2H-pyran-3-yl)methyl)-1H-indazole-5-sulfonamide]",> 1000 nM
19,"CCc1ccc(N(CC(C)C)S(=O)(=O)c2ccc3c(cnn3Cc3ccccc3)c2)cc1 [Compound 23, 1-benzyl-N-(4-ethylphenyl)-N-isobutyl-1H-indazole-5-sulfonamide]",> 1000 nM
20,"CCc1ccc(N(CC2CCC2)S(=O)(=O)c2ccc3c(cnn3CC3CCOCC3)c2)cc1 [Compound 24, N-(cyclobutylmethyl)-N-(4-ethylphenyl)-1-((tetrahydro-2H-pyran-4-yl)methyl)-1H-indazole-5-sulfonamide]",100 to 1000 nM
21,"COc1cccc(N(CC(C)C)S(=O)(=O)c2ccc3c(cnn3CC3CCOCC3)c2)c1 [Compound 25, 1-(tetrahydropyran-4-ylmethyl)-1H-indazole-5-sulfonic acid (3-methoxyphenyl)isobutylamide]",> 1000 nM
22,"Cc1cccc(N(CC(C)C)S(=O)(=O)c2ccc3c(cnn3CC3CCOCC3)c2)c1 [Compound 26, 1-(tetrahydropyran-4-ylmethyl)-1H-indazole-5-sulfonic acid (3-methylphenyl)isobutylamide]",> 1000 nM
23,"Cc1ccc(N(CC(C)C)S(=O)(=O)c2ccc3c(cnn3CC3CCOCC3)c2)c(C)c1 [Compound 27, 1-(tetrahydropyran-4-ylmethyl)-1H-indazole-5-sulfonic acid (2,4-dimethylphenyl)isobutylamide]",100 to 1000 nM
24,"Cc1cc(C)cc(N(CC(C)C)S(=O)(=O)c2ccc3c(cnn3CC3CCOCC3)c2)c1 [Compound 28, 1-(tetrahydropyran-4-ylmethyl)-1H-indazole-5-sulfonic acid (3,5-dimethylphenyl)isobutylamide]",> 1000 nM
25,"CCc1ccc(N(C(C)C)S(=O)(=O)c2ccc3c(cnn3CC3CCOCC3)c2)cc1 [Compound 29, N-(4-ethylphenyl)-N-isopropyl-1-((tetrahydro-2H-pyran-4-yl)methyl)-1H-indazole-5-sulfonamide]",> 1000 nM
26,"CCc1ccc(N(C(C)CC)S(=O)(=O)c2ccc3c(cnn3CC3CCOCC3)c2)cc1 (stereo not drawn) [Compound 30, 1-(tetrahydropyran-4-ylmethyl)-1H-indazole-5-sulfonic acid sec-butyl(4-ethylphenyl)amide]",100 to 1000 nM
27,"CCc1ccc(N(CC2CC2)S(=O)(=O)c2ccc3c(cnn3CC3CCOCC3)c2)cc1 [Compound 31, N-(cyclopropylmethyl)-N-(4-ethylphenyl)-1-((tetrahydro-2H-pyran-4-yl)methyl)-1H-indazole-5-sulfonamide]",> 1000 nM
